{"source": "patent US12121514B2", "about": "“Nonselective metabotropic glutamate receptor activators for treatment of attention deficit disorder and 22Q syndrome” (THE CHILDREN'S HOSPITAL OF PHILADELPHIA, priority 2015, dated 2024)", "assay_type_in_all_cases": "in vivo, human", "key": {"[1]": {"system": "ADHD subject with depression", "experiment": "Vanderbilt depression items 43-46, Phase Ib trial of NFC-1", "conditions": "one subject scoring 3 on all 4 items at week 1; week 5", "from_the_text": "(§1) The Vanderbilt Rating Scale is a measure that can be completed by parents or teachers (separate forms, see Vanderbilt Rating Scale Parents and Vanderbilt Rating Scale Teachers). The Vanderbilt scale rates the child's behavior on items such as attention, finishing tasks, hyperactivity, difficulty waiting, and measures of conduct or oppositional defiant disorders—as well as measures of overall school performance and interactions with others. The first 18 items on the Vanderbilt scale correspond to those of the ADHD Rating Scale IV above while the Vanderbilt scale also includes items 19-47 related to other mental disorders including ODD (items 19-26), conduct disorder (items 27-40), anxiety (items 41, 42, and 47), and depression (items 43-46). Each of the behavioral assessment items on the Vanderbilt Scale are rated 0, 1, 2, or 3, with 0=never occurring; 1=occasionally, 2=often, and 3=very often. Thus, the ADHD Rating Scale IV, ADHD Rating Scale V, and items 1-18 of the Vanderbilt Rating Scale are equivalent scales, while additional items on the Vanderbilt Scale assess co-morbid phenotypes and disorders.\nTwo subjects had maximum scores of 3 on 2 of the 3 Vanderbilt items 41, 42, and 47 that are related to anxiety at enrollment. […] One of those subjects also scored 3 on 3 of the 4 Vanderbilt items related to depression (items 43-46) at enrollment and scored 3 on all 4 items at week 1."}, "[2]": {"system": "adolescent subjects with ADHD and at least one genetic alteration in an mGluR network gene", "experiment": "PERMP-Math test, Phase Ib trial of NFC-1", "conditions": "for Change in PERMP / Final PERMP: individual subjects, monohydrate; for Change in PERMP: placebo baseline (week 1) to final (week 5); for Final PERMP: week 5", "from_the_text": "The Permanent Product Measure of Performance (PERMP)-Math is an individualized mathematics test that can be performed by a patient periodically when on and off medication for ADHD. It is used, for example, to monitor classroom performance in an experimental laboratory setting. In general, the PERMP test comprises 5 pages of 400 problems that subjects are directed to attempt over a 10-minute period. Subjects may be given a pre-test first to determine their mathematical skill level. Subjects are directed to answer as many questions as they can in the 10-minute period and the test is generally scored on a 0-800-point scale based on the number of questions attempted and the number of questions answered correctly within the time limit. Subjects receive a different version of the test at each setting. All efficacy assessments, except actigraphy, were made at study enrollment (“enrollment baseline”) and again, including actigraphy, once-per-week for the placebo week (“week 1” or “placebo baseline”) and at each of the 4 weeks of NFC-1 treatment. These efficacy measures include items 1-18 of the Vanderbilt scale assessing symptoms related to inattentiveness and hyperactivity-impulsiveness as well as additional questions 19-47 of the Vanderbilt scale assessing other behavioral symptoms (conducted by parent), actigraphy for quantitative measurement of activity, Quotient® ADHD test for objective measurement of micro-motion and shifts in attention state, PERMP-Math test, and CGI-I and CGI-S for assessment of global functioning. Prior to receiving the PK assessment dose, subjects returned to the clinic to be administered the PERMP-Math tests, subjected to actigraphy (set to activate at the time of first placebo dose 2 days later), and to be given a general physical examination including vital signs and weight, blood and urine sampling, and a pregnancy test for female subjects. During the 5-week placebo and dose-escalation phases of the study, subjects visited the clinic again at the end of each week to be administered the Quotient® and PERMP-Math tests, subjected to actigraphy, Vanderbilt and BRIEF measurements (conducted by parent), and to be given a general physical examination including vital signs and weight, blood and urine sampling, and a pregnancy test for female subjects. Based on the data in Table 1, the mean change in PERMP score from pre-study baseline to week 5 was negative 3.43. When analyzed based on genetic tier, there were no significant differences from the overall mean change. […] The test was conducted at the time of clinic visits and thus, for each subject, was not necessarily given at the same time post dose or same time of day from one week to the next. The test was also conducted during a clinic visit and not in a classroom setting. Thus, clinic waiting room distractions, for example, could have varied from one visit to the next and were not controlled."}, "[3]": {"system": "subject with ADHD, ODD and conduct disorder (CD)", "experiment": "Vanderbilt CD score (items 27-40), Phase Ib trial of NFC-1", "conditions": "Subject 130", "from_the_text": "as §1, with “[…] disorders-as” for “defiant disorders—as”, “disorders. One subject screening positive for ODD (no. 130) also screened positive for conduct disorder (CD), based on scores of 2 or 3 for 3 out of the […] behaviors assessed by items 27-40 of the Vanderbilt Scale at enrollment and again at week 1. […]” for “disorders.”"}, "[4]": {"system": "subjects with ADHD and ODD", "experiment": "Vanderbilt ODD score (items 19-26), Phase Ib trial of NFC-1", "from_the_text": "as §1\nSubjects were identified as ODD from the K-SADS-P V6 performed at screening and Vanderbilt scores for ODD at screening and at week 1(scores of 2 or 3 on at least 4 of the 8 Vanderbilt items that assess ODD, i.e., items 19 to 26). By the end of the dose escalation phase of the trial at week 5, four of the twelve subjects (nos. 108, 117, 125, and 128) no longer met the screening criteria for ODD."}, "[5]": {"conditions": "out of the 13 ODD subjects, week 1 to week 5"}}, "note": "Values joined by “and” are separate entries in the source; they are usually repeats but may differ in a detail not shown here. Equal entries are not always repeated.", "data": [{"molecule": "O=C1CC[C@H](C(=O)N2CCCCC2)N1", "note": "[NFC-1, fasoracetam monohydrate]", "values": [{"measurement": "scores on Vanderbilt depression items 43-46", "setting": "[1]", "value": "scored either 1 or 2 on all 4 items"}, {"measurement": "PERMP", "setting": "[2]; 22q syndrome Subject 110, Week 2, 50 mg bid", "value": 55}, {"measurement": "PERMP", "setting": "[2]; 22q syndrome Subject 110, Week 3, 100 mg bid", "value": 51}, {"measurement": "PERMP", "setting": "[2]; 22q syndrome Subject 110, Week 4, 200 mg bid", "value": 75}, {"measurement": "PERMP", "setting": "[2]; 22q syndrome Subject 110, Week 5, 400 mg bid", "value": 71}, {"measurement": "PERMP", "setting": "[2]; 22q syndrome Subject 127, Week 2, 50 mg bid", "value": 167}, {"measurement": "PERMP", "setting": "[2]; 22q syndrome Subject 127, Week 3, 100 mg bid", "value": 68}, {"measurement": "PERMP", "setting": "[2]; 22q syndrome Subject 127, Week 4, 200 mg bid", "value": 72}, {"measurement": "PERMP", "setting": "[2]; 22q syndrome Subject 127, Week 5, 400 mg bid", "value": 64}, {"measurement": "Change in PERMP", "setting": "[2]; max dose 100 mg bid", "value": "23 and 0 and 2"}, {"measurement": "Final PERMP", "setting": "[2]; max dose 100 mg bid", "value": "101 and 125 and 135"}, {"measurement": "Change in PERMP", "setting": "[2]; max dose 200 mg bid", "value": "−18 and 19 and 4 and 31 and −70 and 43 and −2 and −24 and −11"}, {"measurement": "Final PERMP", "setting": "[2]; max dose 200 mg bid", "value": "103 and 111 and 76 and 160 and 55 and 152 and 71 and 80 and 74"}, {"measurement": "Change in PERMP", "setting": "[2]; max dose 400 mg bid", "value": "−43 and 26 and −9 and 23 and −11 and 12 and 14 and −12 and 0 and −16 and −4 and −37 and 9 and −28 and −14 and −2 and 15 and −23"}, {"measurement": "Final PERMP", "setting": "[2]; max dose 400 mg bid", "value": "87 and 71 (2×) and 88 and 93 and 48 and 68 and 92 and 64 (3×) and 99 and 80 and 34 and 104 and 46 and 75 and 168"}, {"measurement": "PERMP results over the course of the study", "setting": "[2]; overall", "value": "did not show significant change"}, {"measurement": "improvement in Vanderbilt CD score", "setting": "[3]; week 1 to week 5", "value": 4, "unit": "points"}, {"measurement": "Vanderbilt CD score", "setting": "[3]; week 5, out of 16, 16/16 at week 1", "value": 12}, {"measurement": "Vanderbilt ODD score (items 19-26, maximum 24)", "setting": "[4]; Subject 108, end of week 5, placebo baseline 19", "value": 7}, {"measurement": "Vanderbilt ODD score (items 19-26, maximum 24)", "setting": "[4]; Subject 117, week 5, placebo baseline 19", "value": 8}, {"measurement": "Vanderbilt ODD score (items 19-26, maximum 24)", "setting": "[4]; Subject 128, week 5, placebo baseline 24", "value": 8}, {"measurement": "improvement in Vanderbilt ODD score", "setting": "[4]; Subject 130, week 1 to week 5", "value": 3, "unit": "points"}, {"measurement": "Vanderbilt ODD score", "setting": "[4]; Subject 130, week 5, out of 24, 24/24 at week 1", "value": 21}, {"measurement": "subjects with improved Vanderbilt ODD scores", "setting": "[4]; of 13 ODD subjects, week 1 to week 5", "value": 13, "unit": "subjects"}, {"measurement": "subjects showing improvements of 2 or more points in Vanderbilt ODD items", "setting": "[4]; of the remaining eight ODD subjects, week 1 to week 5", "value": "four"}, {"measurement": "subjects no longer meeting the screening criteria for ODD", "setting": "[4]; of the twelve ADHD/ODD subjects, week 5", "value": "four"}, {"measurement": "subjects with improvement of at least 3 points in Vanderbilt ODD score", "setting": "[4]; [5]", "value": "Eleven"}, {"measurement": "subjects with improvement of at least 8 points in Vanderbilt ODD score", "setting": "[4]; [5]", "value": 6, "unit": "subjects"}, {"measurement": "Vanderbilt ODD scores in subjects on anti-psychotic medications", "setting": "[4]; subjects 111 and 126 on aripiprazole, subject 122 on risperidone, between weeks 1 and 5", "value": "improved"}]}]}
